# Measurements: patent US20220395522A1, “Methods of Use of Glucosamine for Increasing Nitrogen Retention” (TSI Bioproducts (Xuzhou) Co., Ltd., priority 2021, published 2022)
# Legend:
# Type in all cases: in vivo, human
# fecal microbiota = assay: Fecal microbiota analysis (16S rRNA), alpha and beta diversity
# Procedure: (§1) To determine significant differences between bacterial alpha diversity metrics (the measure of microbiome diversity within a single sample), a paired t-test was used between alpha diversity values of different sample groups (p<0.05). Significant differences in beta diversity (the measure of similarity or dissimilarity of multiple samples) between groups was determined using the qiime diversity beta-group-significance command in QIIME2 as well, which performs pairwise Permutational Multivariate Analysis of Variance (PERMANOVA) tests on beta diversity distance matrices (p<0.05). Differential abundance of taxa between sample groups were evaluated using Multivariate Analysis by Linear Models (MaAsLin) in R version 4.0.2 using the Maaslin2 command in the Maaslin2 R library on rarified taxonomy data generated by QIIME2 (p<0.05). Additional evaluation of differential abundance of taxa was performed using Analysis of Composition of Microbiomes (ANCOM) using the qiime composition ancom command after collapsing the feature table to the family level (level 5) using the qiime taxa collapse command on QIIME2. Data visualization was performed using the ggplot2 package, with data frame manipulation commands from the dplyr package, within the tidyverse collection of R packages.
# Stool specimens were collected at four time points throughout the entire study protocol. The first two samples were collected before and after the first supplementation period while the final two samples were collected before and after the second supplementation period. All stool specimens were collected no more than 24-hours prior to that study participant being scheduled to complete their laboratory visit. All samples were immediately frozen after sample collection by the study participants. […]
# A fecal microbiota analysis was further conducted. […] The Qubit Fluorometer (Thermo Fisher Scientific, San Francisco, Calif.) was used to quantify PCR product concentrations prior to combining the PCR products in equal quantities for purification with the Wizard SV Gel and PCR Cleanup kit (Promega, Madison, Wis.). […]
# Bacillaceae = assay: Fecal microbiota analysis, differential abundance of taxa (MaAsLin); details: after GLU intake compared to baseline (GLU (Pre)), p=0.038
# Procedure: as §1, with “Additional evaluation of differential abundance of taxa was performed using Analysis of Composition of Microbiomes (ANCOM) using the qiime composition ancom command after collapsing the feature table to the family level (level 5) using the qiime taxa collapse command on QIIME2. Data visualization was performed using the ggplot2 package, with data frame manipulation commands from the dplyr package, within the tidyverse collection of R packages.” left out
# (§2) A fecal microbiota analysis was further conducted. […] The Qubit Fluorometer (Thermo Fisher Scientific, San Francisco, Calif.) was used to quantify PCR product concentrations prior to combining the PCR products in equal quantities for purification with the Wizard SV Gel and PCR Cleanup kit (Promega, Madison, Wis.). […] Library purity and concentration was measured on a 2100 Bioanalyzer System (Agilent Technologies, Santa Clara, Calif.). […]
# (§3) Ion Torrent BAM files of raw DNA sequencing data were converted to the FASTQ format using BEDTools and then analyzed using Quantitative Insights into Microbiology (QIIME2) version 2019.10. Reads shorter than 200 bp in length were removed. […] Multiple sequence Alignment using Fast Fourier Transform (MAFFT) was used for read alignment, while gapped and unconserved alignments were filtered using the alignment mask plugin. […] Sequences of mitochondria and chloroplast origin were filtered from downstream analysis, leaving a total of 1,391,259 total high-quality reads associated with taxonomic annotations. Samples were rarified to 7,874 reads for alpha and beta diversity analysis. […]
# Peptococcaceae = assay: as above; details: after GLU intake compared to baseline (GLU (Pre)), p=0.021
# Procedure: as §1, with “Additional evaluation of differential abundance of taxa was performed using Analysis of Composition of Microbiomes (ANCOM) using the qiime composition ancom command after collapsing the feature table to the family level (level 5) using the qiime taxa collapse command on QIIME2. Data visualization was performed using the ggplot2 package, with data frame manipulation commands from the dplyr package, within the tidyverse collection of R packages.” left out
# as §2, §3
# Pseudomonadaceae = assay: as above; details: after GLU intake compared to baseline (GLU (Pre)), p=0.014
# Procedure: as §1, with “Additional evaluation of differential abundance of taxa was performed using Analysis of Composition of Microbiomes (ANCOM) using the qiime composition ancom command after collapsing the feature table to the family level (level 5) using the qiime taxa collapse command on QIIME2. Data visualization was performed using the ggplot2 package, with data frame manipulation commands from the dplyr package, within the tidyverse collection of R packages.” left out
# as §2, §3
smiles,measurement,setting,value
"Cl.N[C@H]1C(O)O[C@H](CO)[C@@H](O)[C@@H]1O (stereo partly drawn) [GLU, glucosamine hydrochloride]",Other alpha diversity measures (Observed OTUs or Shannon Evenness),"fecal microbiota; Post vs Pre, paired t-test p>0.05",not significantly altered
same,Changes in beta-diversity (unweighted Unifrac distances),"fecal microbiota; compared to baseline, PERMANOVA p>0.05",not significantly different
same,"Alpha diversity of fecal bacterial communities, Faith's Phylogenetic Diversity (PD)","fecal microbiota; following GLU consumption compared to baseline, paired t-test p=4.59E-03",significantly decreased
same,Proportion of Bacillaceae,Bacillaceae,not detected
same,"Proportion of Peptococcaceae, Log2 FC",Peptococcaceae,−4.52
same,"Proportion of Pseudomonadaceae, Log2 FC",Pseudomonadaceae,−1.05
